Experimental data taken from patent US20100197663A1, “METHOD AND COMPOSITIONS FOR TREATMENT OF PAINFUL DISORDERS” (RODLEN LABORATORIES, INC., priority 2004, published 2010).

Experiments:
[1] = tested on: widespread pain in the neck, back and arms associated with fibromyalgia; assay: Case report: patient with fibromyalgia pain, oral treatment at H.S.; assay type: in vivo, human; settings: person; analgesic taken by itself, before combination treatment
[2] = tested on: widespread pain in the neck, shoulders, arms and legs; assay: Case report: patient with widespread pain, headaches, non-restorative sleep and fatigue, oral treatment at H.S.; assay type: in vivo, human; settings: person; before combination treatment

| Structure (SMILES) | response of pain to analgesic by itself [1] | response of pain to analgesic alone [2] |
| --- | --- | --- |
| CC(=O)Nc1ccc(O)cc1 [acetaminophen] | unresponsive | – |
| CC(=O)Oc1ccccc1C(=O)O [aspirin] | unresponsive | – |
| CC(C)Cc1ccc(C(C)C(=O)O)cc1 (stereo not drawn) [ibuprofen] | – | unresponsive |
